Laboratory results: the NIST ThermoML archive (doi:10.1016/j.jct.2015.05.011)

What was measured:
[1] = xn = mol fraction of the nth substance listed; conditions: 100 kPa, Liquid; for mass density: Vibrating tube method; for viscosity: Falling or rolling sphere viscometry
[2] = refractive index (Na D-line) (dimensionless); xn = mol fraction of the nth substance listed; conditions: 298.15 K, 100 kPa, Liquid, Standard Abbe refractometry
[3] = excess molar enthalpy (molar enthalpy of mixing); xn = mol fraction of the nth substance listed; conditions: 100 kPa, Liquid, Flow calorimetry

CCn1cc[n+](C)c1.N#C[C-](C#N)C#N [1-ethyl-3-methyl-1H-imidazolium tricyanomethanide] + O
Conditions	excess molar enthalpy, [3] [kcal/mol]	mass density, [1] [kg/m3]	viscosity, [1] [mPa·s]
288.15 K, x1 = 0.000486	0.00123	999.748	–
288.15 K, x1 = 0.000971	0.00258	1000.38	–
288.15 K, x1 = 0.001456	0.00395	1000.99	–
288.15 K, x1 = 0.001941	0.0053	1001.57	–
288.15 K, x1 = 0.002425	0.00668	1002.13	–
288.15 K, x1 = 0.002908	0.00806	1002.68	–
298.15 K, x1 = 0.000486	0.00143	997.586	–
298.15 K, x1 = 0.000971	0.00297	998.133	–
298.15 K, x1 = 0.001455	0.0045	998.652	–
298.15 K, x1 = 0.00194	0.00603	999.158	–
298.15 K, x1 = 0.002423	0.00756	999.648	–
298.15 K, x1 = 0.002907	0.00907	1000.12	–
298.15 K, x2 = 0	–	1081.38	14
298.15 K, x2 = 0.1084	–	1079.85	11.85
298.15 K, x2 = 0.2059	–	1078.28	10.11
298.15 K, x2 = 0.3058	–	1076.34	8.35
298.15 K, x2 = 0.4145	–	1073.8	7.05
298.15 K, x2 = 0.5128	–	1070.97	5.88
298.15 K, x2 = 0.6095	–	1067.4	4.89
298.15 K, x2 = 0.7065	–	1062.54	3.98
298.15 K, x2 = 0.789	–	1056.44	3.24
298.15 K, x2 = 0.9015	–	1040.72	2.16
298.15 K, x2 = 0.9513	–	1026.4	1.58
298.15 K, x2 = 0.9869	–	1008.32	1.07
308.15 K, x1 = 0.000485	0.00166	994.509	–
308.15 K, x1 = 0.00097	0.00339	994.981	–
308.15 K, x1 = 0.001455	0.00511	995.435	–
308.15 K, x1 = 0.001939	0.00682	995.873	–
308.15 K, x1 = 0.002423	0.00851	996.296	–
308.15 K, x1 = 0.002906	0.0102	996.708	–
318.15 K, x1 = 0.000485	0.00184	990.626	–
318.15 K, x1 = 0.00097	0.00377	991.036	–
318.15 K, x1 = 0.001455	0.00569	991.43	–
318.15 K, x1 = 0.001939	0.00759	991.809	–
318.15 K, x1 = 0.002422	0.00945	992.176	–
318.15 K, x1 = 0.002905	0.0113	992.534	–

[2]
Conditions	refractive index
x2 = 0	1.51227
x2 = 0.1084	1.50965
x2 = 0.2059	1.50681
x2 = 0.3058	1.50438
x2 = 0.4145	1.49961
x2 = 0.5128	1.49477
x2 = 0.6095	1.487
x2 = 0.7065	1.4765
x2 = 0.789	1.46324
x2 = 0.9015	1.42697
x2 = 0.9513	1.39433
x2 = 0.9869	1.35455
